In PMC11754443, “Synthesis, H2S releasing properties, antiviral and antioxidant activities and acute cardiac effects of nucleoside 5′-dithioacetates” (Scientific Reports, 2025):
Like-named read-outs stand apart in the source and are kept apart here.

How the values were obtained:
[1] = tested on: perivascular adipose tissue; design: method as in PMID 26120822; conditions: obese rats, through H2S release; cited from earlier work
[2] = design: method as in PMID 26809888; conditions: administered at the end of sustained ischemia; cited from earlier work
[3] = tested on: SARS-CoV-2 (strain hCoV-19/Czech Republic/NRL_6632_2/2020); experiment: Anti-SARS-CoV-2 cytopathic-effect-based assay in Calu-3 cells (CellTiter-Glo); assay type: cell-based; conditions: Severe acute respiratory syndrome coronavirus 2, compound added 2 h after infection, MOI 0.3, read after two days, read-out: EC50 ± SE, anti-SARS-CoV-2 activity
SARS-CoV-2 = assay type: cell-based; conditions: medium of Calu-3 cells infected 2 days at the highest compound concentration, plaque assay in Vero E6 cells
[4] = Cytotoxicity in Calu-3 cells (CellTiter-Glo); assay type: cell-based, human; conditions: human
Method: Cytotoxicity was evaluated by incubating the same two-fold serial dilutions of each compound with Calu-3 cells as above in the absence of the virus. Following two days incubation at 37 °C in 5% CO2, the cell viability was determined as above. The compound concentrations resulting in 50% reduction of cell viability (CC50) were calculated from plots of percentage of luminescence versus log10 drug concentration as above. Remdesivir was used as control in both assays.

[5] = DPPH radical scavenging assay; conditions: for IC50: without extract
Method: DPPH is a stable free radical with a deep violet color that changes to yellow when neutralized by an electron or hydrogen radical, indicating the antioxidant activity of the sample being tested. The DPPH radical scavenging abilities were investigated following the method outlined by Shimamura et al., with minor adjustments. In this study, a cardiovascular tissue homogenate was used to induce H2S release from the dithioacetate derivatives 22 and 24, as well as GYY4137. A mixed solution of 1.2 mL of methanol and 800 µL of 0.1 M Tris-HCl buffer (pH 7.4) served as the blank. 1 mL DPPH solution was added to a mixture of methanol and 0.1 M Tris-HCl buffer (200:800 µL). After mixing, the absorbance was recorded at 517 nm on a UV-1600 PC VWR spectrophotometer (VWR, China). To avoid any potential interference from the heart extract in the assay, we measured the absorbance after adding different volumes of the extract into the mixture. These measurements were taken both immediately and after 30 min of incubation.
The DPPH antioxidant assay was performed according to the following procedures. 1 mL of DPPH solution was added to a mixture of 200 µL of the methanolic sample solution and 800 µL of 0.1 M Tris-HCl buffer (pH = 7.4). For the groups containing the extract, the extract was introduced into a mixture of the sample solution in PBS buffer, 0.1 M Tris-HCl buffer, and DPPH (200:800:1000 µL). Considering that GYY4137 produces H2S upon hydrolysis, it was introduced last following the addition of the extract into a solution of PBS buffer, 0.1 M Tris-HCl buffer, and DPPH maintained at the same ratio. The same protocol was employed for NaHS without the addition of the extract. After mixing, the absorbance was promptly recorded, after which the solutions were incubated in the dark at room temperature for 30 min before the absorbance was measured again. The test samples were prepared and assayed at varying concentrations using a 2-fold serial dilution method, starting from a concentration of 2 mM. Each investigation was performed in triplicate, and the antioxidant activity was based on the absorbance recorded at 517 nm. Ascorbic acid (AA), GYY4137, and NaHS served as positive controls, while the unmodified nucleosides were used as reference compounds.
The inhibition ratio (IR) was calculated as follows: [drawing 1] where Ac is the absorbance when methanol is added instead of the sample and As is the absorbance when the testing sample solution is added.
The antioxidant capacity was expressed as the concentration needed to achieve a 50% inhibition of the free radical (IC50). The IC50 values were calculated by plotting the percent of inhibition as a function of sample concentration.

[6] = tested on: anaesthetized Sprague-Dawley rats; experiment: Cardiac effects by ECG and echocardiography in anaesthetized rats; assay type: in vivo, rat; conditions: 2 mg/kg i.v.
Method: The animals received humane care, and all experimental procedures were carried out in accordance with the “Principles of Laboratory Animal Care” by EU Directive 2010/63/EU. All experimental protocols were approved by the local Ethics Committee of University of Debrecen (25/2023/DEMÁB). Animal experiments are reported in compliance with the ARRIVE guidelines. Anesthesia was carried out using ketamine/xylazine mixture (100/10 mg/kg, i.m.). The chest was shaved and the animal was placed onto a heated pad (VisualSonics SR200, VisualSonics, Amsterdam, The Netherlands). The lateral tail vein was cannulated using a heparinized 26G i.v. cannula (BD Neoflon, BD Medical, NJ, USA). B-mode and M-mode echocardiography was carried out before and 30 s after the intravenous administration of the compounds. A high-resolution ultrasound machine (Vevo 3100 Imaging Station, VisualSonics, Amsterdam, The Netherlands) equipped with a […] transducer (MX201) was used for assessing cardiac parameters. Traces were obtained from the parasternal long axis view (PLAX). A B-mode video and an M-mode trace was recorded, and the following parameters were then offline analysed: left ventricle (LV) end-systolic and end-diastolic volume (LVESV, LVEDV, respectively) fractional shortening (FS) and ejection fraction (EF) and stroke volume (SV).
A 3-channel ECG was continuously recorded during the experiments (Vevo monitor ECG, VisualSonics, Amsterdam, The Netherlands). On the recorded ECG data, RR, PR and QT intervals, and heart rate (HR) were determined before and 30 s after the administration of the drugs, and 6 consecutive cardiac cycles were averaged for each parameter.
Statistical analyses for the in vivo studies were carried out using the GraphPad Prism 9.0 software (GraphPad Software, San Diego, CA, USA). Data distribution was assessed by the Shapiro-Wilk normality test, and paired t-test were used to determine the differences between the baseline (drug free) and endpoint (treated) parameters in each group. A multiple comparison was also carried out between the treatment groups by using one-way ANOVA with Tukey multiple comparison test. Data was shown as mean ± SD, and differences with p < 0.05 were considered significant.

[7] = ABTS radical cation decolorization assay; conditions: 0.1 mM, compared with parent dithioacetates 22 and 24
Method: The ABTS decolorization assay was carried out as described by Szoke et al.[54] Briefly, the method is based on the scavenging of (2,2′-azinobis-(3-ethylbenzothiazoline-6-sulfonic acid) ABTS^•+ radical cation. The decolorization caused by the compound is compared to the decolorization induced by Trolox (6-hydroxy-2,5,7,8-tetramethylchroman-2-carboxylic acid), and expressed as Trolox equivalent antioxidant capacity (TEAC) value. TEAC values were expressed as Trolox equivalents calculated from (Ai − Af)antioxidant/(Ai − Af) Trolox at 0.1 mM concentrations. Briefly, a total of 10 µL sample, 20 µL of Myoglobin Working Solution, and 150 µL of ABTS Substrate Working Solution were mixed and incubated for 5 min at room temperature. At the end of incubation […] of Stop Solution was added and endpoint absorbance at 405 nm was read. All experiments were performed in triplicates and repeated three times.

[8] = anaesthetized SD rats, 30 s after administration, mean ± SD

SMILES: Nc1nc2c(ncn2[C@@H]2O[C@H](COP(O)(O)=S)[C@@H](O)[C@H]2O)c(=O)[nH]1 [Compound 3]
- effect on anti-contractile effects of perivascular adipose tissue [1]: restore the anti-contractile effects of perivascular adipose tissue in obese rats

SMILES: NC(=S)c1ccc(OC[C@H]2O[C@@H](n3cnc4c(N)ncnc43)[C@H](O)[C@@H]2O)cc1 [Compound 1]
- effect on infarct size [2]: significantly reduced infarct size

SMILES: CCC(CC)COC(=O)[C@H](C)N[P@](=O)(OC[C@H]1O[C@@](C#N)(c2ccc3c(N)ncnn23)[C@H](O)[C@@H]1O)Oc1ccccc1 [Remdesivir, reference compound]
- EC50 [3]: 0.5 ± 0.26 µM
- SARS-CoV-2 titer reduction (SARS-CoV-2): 7.1 log10 PFU/mL
- CC50 at 2 days [4]: > 10 µM

SMILES: Nc1ncnc2c1ncn2[C@@H]1O[C@H](CS)[C@@H](O)[C@H]1O [Compound 34, 5′-Deoxy-5′-thioadenosine]
- DPPH inhibition ratio after 30 min incubation ([5]; 2 mM, after 30 min incubation): 90%
- DPPH inhibition ratio immediately ([5]; 2 mM, immediately): 70–80%
- IC50 ([5]; after 30 min incubation, read-out: DPPH IC50 30 min): 580 µM
- DPPH activity lower than that of ascorbic acid ([5]; from IC50 values, relative to ascorbic acid): 10 times
- IC50 ([5]; measured immediately, read-out: DPPH IC50 immediately): 720 µM
- Ejection Fraction [6, 8]: 82.14±5.877%
- Heart rate [6, 8]: 97.25±24.66 bpm
- PR interval [6, 8]: 49.43 ± 6.973 ms
- QT interval [6, 8]: 158.3 ± 35.8 ms
- Stroke Volume [6, 8]: 335.6 ± 68.82 µL
- duration of negative chronotropic action compared with adenosine ([6]; anaesthetized rats): their duration of action was longer
- heart block (in words) ([6]; anaesthetized rats): None of the new compounds (22, 24, and 34) induced complete heart block or pauses
- ABTS antioxidant activity (Trolox equivalents), in words [7]: higher antioxidant activity than the parent dithioacetate derivatives

SMILES: Nc1ncnc2c1ncn2[C@@H]1O[C@H](COP(O)(O)=S)[C@@H](O)[C@H]1O [Compound 2]
- effect on anti-contractile effects of perivascular adipose tissue [1]: restore the anti-contractile effects of perivascular adipose tissue in obese rats
